Experimental data from ChEMBL document CHEMBL1201862, “PubChem BioAssay data set” (2004).
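Cultured in 96-well plates, cells were exposed to test compound for 48 hours across five concentrations. GI50 is the concentration that inhibits growth by half.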 The source made the active and inactive calls. No stated cut-off is given here; in the data, active = GI50 up to about 1.1 µM and inactive = higher.

Assays:
Assay in all cases: NCI-60 cell line screen, 48 h
HT-29 = tested on: HT-29
HCC 2998 = tested on: HCC 2998
IGROV-1 = tested on: IGROV-1
EKVX = tested on: EKVX
RPMI-8226 = tested on: RPMI-8226
UACC-257 = tested on: UACC-257
OVCAR-3 = tested on: OVCAR-3
NCI-H460 = tested on: NCI-H460
SK-OV-3 = tested on: SK-OV-3
ACHN = tested on: ACHN
NCI-H226 = tested on: NCI-H226
KM12 = tested on: KM12
COLO 205 = tested on: COLO 205
U-251 = tested on: U-251
LOX IMVI = tested on: LOX IMVI
K562 = tested on: K562
MOLT-4 = tested on: MOLT-4
SNB-75 = tested on: SNB-75
786-0 = tested on: 786-0

CCN(CC)CC(O)C1CCC(c2ccccc2)CC1 (stereo not drawn)
GI50 (HT-29): 10.5 µM (inactive)
GI50 (HCC 2998): 0.627 µM (active)
GI50 (IGROV-1): 35.2 µM (inactive)
GI50 (EKVX): 0.437 µM (active)
GI50 (RPMI-8226): 13.5 µM (inactive)
GI50 (UACC-257): 21 µM (inactive)
GI50 (OVCAR-3): 44 µM (inactive)
GI50 (NCI-H460): 25.6 µM (inactive)
GI50 (SK-OV-3): 16.1 µM (inactive)
GI50 (ACHN): 18 µM (inactive)
GI50 (NCI-H226): 15.8 µM (inactive)
GI50 (KM12): 24 µM (inactive)
GI50 (COLO 205): 12.8 µM (inactive)
GI50 (U-251): 19.8 µM (inactive)
GI50 (LOX IMVI): 17.4 µM (inactive)
GI50 (K562): 26.8 µM (inactive)
GI50 (MOLT-4): 43.8 µM (inactive)
GI50 (SNB-75): 23.7 µM (inactive)
GI50 (786-0): 15.6 µM (inactive)

[O-][S+]1Cc2ccccc2CS1 (stereo not drawn)
GI50 (HT-29): 15.8 µM (inactive)
GI50 (HCC 2998): 29.7 µM (inactive)
GI50 (IGROV-1): 68.2 µM (inactive)
GI50 (EKVX): 22.9 µM (inactive)
GI50 (RPMI-8226): 13.9 µM (inactive)
GI50 (UACC-257): 14.7 µM (inactive)
GI50 (OVCAR-3): 15.1 µM (inactive)
GI50 (NCI-H460): 22.7 µM (inactive)
GI50 (SK-OV-3): 52.8 µM (inactive)
GI50 (ACHN): 18.8 µM (inactive)
GI50 (NCI-H226): 87.1 µM (inactive)
GI50 (KM12): 35.1 µM (inactive)
GI50 (COLO 205): 15.4 µM (inactive)
GI50 (U-251): 10.7 µM (inactive)
GI50 (LOX IMVI): 7.46 µM (inactive)
GI50 (K562): 17.9 µM (inactive)
GI50 (MOLT-4): 15.4 µM (inactive)
GI50 (SNB-75): 20.3 µM (inactive)
GI50 (786-0): 15.7 µM (inactive)

O=C(C#Cc1cnc(O)nc1O)c1ccccc1
GI50 (HT-29): 21.8 µM (inactive)
GI50 (HCC 2998): 18.3 µM (inactive)
GI50 (IGROV-1): 17.9 µM (inactive)
GI50 (EKVX): 12 µM (inactive)
GI50 (RPMI-8226): 7.76 µM (inactive)
GI50 (UACC-257): 11.5 µM (inactive)
GI50 (OVCAR-3): 2.09 µM (inactive)
GI50 (NCI-H460): 14.1 µM (inactive)
GI50 (SK-OV-3): 27.3 µM (inactive)
GI50 (ACHN): 14.5 µM (inactive)
GI50 (NCI-H226): 24.8 µM (inactive)
GI50 (KM12): 15.2 µM (inactive)
GI50 (COLO 205): 7.23 µM (inactive)
GI50 (U-251): 13.9 µM (inactive)
GI50 (LOX IMVI): 4.42 µM (inactive)
GI50 (K562): 2.98 µM (inactive)
GI50 (MOLT-4): 2.48 µM (inactive)
GI50 (SNB-75): 18.2 µM (inactive)
GI50 (786-0): 12.2 µM (inactive)

O=c1[nH]c(=O)n(C2CC(O)C(CO)O2)cc1C#Cc1cc(F)cc(F)c1 (stereo not drawn)
GI50 (HT-29): > 100 µM (inactive)
GI50 (HCC 2998): > 100 µM (inactive)
GI50 (IGROV-1): > 100 µM (inactive)
GI50 (EKVX): > 100 µM (inactive)
GI50 (RPMI-8226): > 100 µM (inactive)
GI50 (UACC-257): > 100 µM (inactive)
GI50 (OVCAR-3): > 100 µM (inactive)
GI50 (NCI-H460): > 100 µM (inactive)
GI50 (SK-OV-3): > 100 µM (inactive)
GI50 (ACHN): > 100 µM (inactive)
GI50 (NCI-H226): > 100 µM (inactive)
GI50 (KM12): > 100 µM (inactive)
GI50 (COLO 205): > 100 µM (inactive)
GI50 (U-251): > 100 µM (inactive)
GI50 (LOX IMVI): > 100 µM (inactive)
GI50 (K562): > 100 µM (inactive)
GI50 (MOLT-4): > 100 µM (inactive)
GI50 (SNB-75): 48.9 µM (inactive)
GI50 (786-0): > 100 µM (inactive)

O=C1c2ccccc2C(=O)c2c(NCCNCCO)ccc(O)c21
GI50 (HT-29): 2.58 µM (inactive)
GI50 (HCC 2998): 4.66 µM (inactive)
GI50 (IGROV-1): 2.97 µM (inactive)
GI50 (EKVX): 3.98 µM (inactive)
GI50 (RPMI-8226): 3.22 µM (inactive)
GI50 (UACC-257): 3.29 µM (inactive)
GI50 (OVCAR-3): 6.46 µM (inactive)
GI50 (NCI-H460): 1.44 µM (inactive)
GI50 (SK-OV-3): 2.55 µM (inactive)
GI50 (ACHN): 2.73 µM (inactive)
GI50 (NCI-H226): 2.71 µM (inactive)
GI50 (KM12): 2.52 µM (inactive)
GI50 (COLO 205): 2.26 µM (inactive)
GI50 (U-251): 3.48 µM (inactive)
GI50 (LOX IMVI): 1.51 µM (inactive)
GI50 (K562): 4.86 µM (inactive)
GI50 (MOLT-4): 1.37 µM (inactive)
GI50 (SNB-75): 3.63 µM (inactive)
GI50 (786-0): 3.66 µM (inactive)

O=C1C/C(=C/c2ccc(/C=C3/CC(=O)N(c4cccc(Br)c4)C3=O)cc2)C(=O)N1c1cccc(Br)c1
GI50 (HT-29): > 100 µM (inactive)
GI50 (HCC 2998): > 100 µM (inactive)
GI50 (IGROV-1): > 100 µM (inactive)
GI50 (EKVX): > 100 µM (inactive)
GI50 (RPMI-8226): > 100 µM (inactive)
GI50 (UACC-257): > 100 µM (inactive)
GI50 (OVCAR-3): > 100 µM (inactive)
GI50 (NCI-H460): > 100 µM (inactive)
GI50 (SK-OV-3): > 100 µM (inactive)
GI50 (ACHN): > 100 µM (inactive)
GI50 (NCI-H226): > 100 µM (inactive)
GI50 (KM12): > 100 µM (inactive)
GI50 (COLO 205): > 100 µM (inactive)
GI50 (U-251): > 81.7 µM (inactive)
GI50 (LOX IMVI): > 100 µM (inactive)
GI50 (K562): > 67 µM (inactive)
GI50 (MOLT-4): 54.2 µM (inactive)
GI50 (SNB-75): 23.5 µM (inactive)
GI50 (786-0): 58.1 µM (inactive)

CCCCCC(/C=C/[C@@H]1[C@H]2CC(=O)O[C@H]2C[C@H]1N1CCOCC1)OC1CCCO1 (stereo partly drawn)
GI50 (HT-29): > 100 µM (inactive)
GI50 (HCC 2998): > 100 µM (inactive)
GI50 (IGROV-1): > 100 µM (inactive)
GI50 (EKVX): > 100 µM (inactive)
GI50 (RPMI-8226): > 100 µM (inactive)
GI50 (UACC-257): > 100 µM (inactive)
GI50 (OVCAR-3): > 100 µM (inactive)
GI50 (NCI-H460): > 100 µM (inactive)
GI50 (SK-OV-3): > 100 µM (inactive)
GI50 (ACHN): > 100 µM (inactive)
GI50 (NCI-H226): > 100 µM (inactive)
GI50 (KM12): > 100 µM (inactive)
GI50 (COLO 205): > 100 µM (inactive)
GI50 (U-251): > 100 µM (inactive)
GI50 (LOX IMVI): > 100 µM (inactive)
GI50 (K562): > 100 µM (inactive)
GI50 (MOLT-4): > 100 µM (inactive)
GI50 (SNB-75): > 100 µM (inactive)
GI50 (786-0): > 100 µM (inactive)
